Key:
[1] = tested on: endogenous, full-length WIZ; conditions: WSU-DLCL2 and TMD8 cells; cited from earlier work
[2] = target: IKZF2 ZF2 (Homo sapiens, UniProt Q96SW2+Q9UKS7); test: Degradation reporter analysis of IKZF2 ZF2; assay type: cell-based
[3] = target: human C2H2 ZF library in HEK293T cells (Homo sapiens, UniProt Q9UKS7); test: C2H2 zinc finger library screen; assay type: cell-based; conditions: 1 μM, 20 hours
[4] = tested on: human C2H2 ZF library in HEK293T cells; test: C2H2 zinc finger library screen; assay type: cell-based; conditions: FDR <0.01, 5,611 ZFs assayed, 1 μM, 20 hours
[5] = target: CRBN-pomalidomide (Alexa488DDB1ΔB-CRBN-pomalidomide-biotinIKZF1 ZF1-2-3) (Homo sapiens, UniProt Q96SW2)
Sequence of CRBN-pomalidomide (Alexa488DDB1ΔB-CRBN-pomalidomide-biotinIKZF1 ZF1-2-3) (Q96SW2 whole entry, stated change not applied): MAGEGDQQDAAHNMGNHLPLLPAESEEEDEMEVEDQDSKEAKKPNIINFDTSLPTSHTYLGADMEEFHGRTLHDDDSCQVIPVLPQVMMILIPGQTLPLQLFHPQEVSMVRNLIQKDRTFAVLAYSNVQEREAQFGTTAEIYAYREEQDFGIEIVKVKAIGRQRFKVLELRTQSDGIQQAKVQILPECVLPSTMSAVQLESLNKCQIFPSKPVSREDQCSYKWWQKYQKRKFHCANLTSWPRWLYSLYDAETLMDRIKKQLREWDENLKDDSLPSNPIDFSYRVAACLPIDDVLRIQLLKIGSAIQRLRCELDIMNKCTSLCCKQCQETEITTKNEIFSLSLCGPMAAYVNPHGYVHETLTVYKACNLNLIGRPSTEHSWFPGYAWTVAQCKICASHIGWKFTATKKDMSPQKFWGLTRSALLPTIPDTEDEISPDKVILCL

[6] = tested on: ZFs that bound CRBN-pomalidomide in the biochemical assay; assay type: cell-based, human; conditions: WIZ ZF7, cells

Sequence of IKZF2 ZF2 (Q9UKS7 140-162 limits assumed): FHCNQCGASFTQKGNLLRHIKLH
Sequence of IKZF2 ZF2 (Q96SW2 whole entry): as the sequence (Q96SW2 whole entry, stated change not applied) above
Sequence of IKZF2 ZF2 (Q16531 2-1140 partner limits assumed): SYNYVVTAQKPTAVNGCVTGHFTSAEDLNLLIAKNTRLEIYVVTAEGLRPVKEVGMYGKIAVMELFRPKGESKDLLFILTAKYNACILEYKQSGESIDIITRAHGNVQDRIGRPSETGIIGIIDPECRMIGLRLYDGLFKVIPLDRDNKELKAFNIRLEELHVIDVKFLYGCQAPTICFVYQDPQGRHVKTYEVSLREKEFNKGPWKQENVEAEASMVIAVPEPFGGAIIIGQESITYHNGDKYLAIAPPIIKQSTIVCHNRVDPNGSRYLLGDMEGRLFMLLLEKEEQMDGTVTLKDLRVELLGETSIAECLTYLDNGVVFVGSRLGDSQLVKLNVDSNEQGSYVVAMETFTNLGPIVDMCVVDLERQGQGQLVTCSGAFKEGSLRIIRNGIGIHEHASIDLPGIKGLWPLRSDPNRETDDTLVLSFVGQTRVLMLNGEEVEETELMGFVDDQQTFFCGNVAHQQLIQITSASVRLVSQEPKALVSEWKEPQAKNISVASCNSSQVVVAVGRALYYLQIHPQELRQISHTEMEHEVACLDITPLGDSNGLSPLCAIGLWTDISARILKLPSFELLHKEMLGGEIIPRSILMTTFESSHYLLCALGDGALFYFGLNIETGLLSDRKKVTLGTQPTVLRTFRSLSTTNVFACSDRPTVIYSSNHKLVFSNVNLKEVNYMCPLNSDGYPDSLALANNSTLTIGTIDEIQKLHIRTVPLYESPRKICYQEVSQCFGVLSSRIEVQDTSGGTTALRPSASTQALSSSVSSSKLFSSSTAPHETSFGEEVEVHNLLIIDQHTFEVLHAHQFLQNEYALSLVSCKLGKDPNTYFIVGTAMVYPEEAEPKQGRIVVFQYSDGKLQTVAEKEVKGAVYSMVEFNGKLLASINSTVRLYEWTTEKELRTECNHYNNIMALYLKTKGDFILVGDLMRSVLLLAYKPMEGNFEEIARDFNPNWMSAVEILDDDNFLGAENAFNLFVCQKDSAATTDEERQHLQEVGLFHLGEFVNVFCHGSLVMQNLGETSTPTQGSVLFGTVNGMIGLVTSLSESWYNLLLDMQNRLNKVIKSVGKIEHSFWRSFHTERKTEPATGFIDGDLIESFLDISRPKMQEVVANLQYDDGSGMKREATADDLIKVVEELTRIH
Sequence of human C2H2 ZF library in HEK293T cells (Homo sapiens, UniProt Q9UKS7) (Q96SW2 whole entry partner): as the sequence (Q96SW2 whole entry, stated change not applied) above

Row | Compound | degradation of endogenous, full-length WIZ [1] | degradation of IKZF2 ZF2 (in words) [2] | degradation of IKZF2 ZF2 in the C2H2 ZF library screen [3] | degradation of the IKZF2 ZF2 reporter ([2]; validation experiments) | number of C2H2 ZFs depleted [4] | factor of decrease in binding affinity, ZF2-ZF1 versus ZF2-ZF3 [5] | degradation of WIZ ZF7 in the degradation reporter [6]
1 | Cc1nc2cccc(N)c2c(=O)n1C1CCC(=O)NC1=O (stereo not shown) [CC-122] | confirmed degradation | not degraded | – | – | – | – | –
2 | O=C1CC[C@H](N2Cc3c(OCc4ccc(CN5CCOCC5)cc4)cccc3C2=O)C(=O)N1 [CC-220] | – | efficiently degraded | selectively degraded | more than 40% | – | – | –
3 | Nc1cccc2c1CN(C1CCC(=O)NC1=O)C2=O (stereo not shown) [lenalidomide] | confirmed degradation | – | – | – | – | – | –
4 | Nc1cccc2c1C(=O)N(C1CCC(=O)NC1=O)C2=O (stereo not shown) [pomalidomide] | – | not degraded | – | – | 11 | 6 | partial degradation
